Test [1] concerns the target human A2a adenosine receptor (Homo sapiens (Human), UniProt P29274). In words: A2a receptor affinity radioligand binding assay ([3H] SCH58261, membranes from HEK293 or CHO cells). The settings on record: unstarred values: radioligand binding. The method, boiled down:
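Displacement of tritiated SCH58261 (working dilution 4 nM) from recombinant human A2a receptor membranes (HEK293 or CHO), 60 min at room temperature in Tris pH 7.4/MgCl2 buffer after 15–30 min compound preincubation. Scintillation counting after filtration; normalized percent effect fitted 4-parameter logistic for IC50.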

Test [2] deals with human A2b adenosine receptor (Homo sapiens (Human), UniProt P29275). Description: A2B antagonism in cAMP cell-based assay (LANCE cAMP, HEK293 cells, 600 nM adenosine). The settings on record: for IC50: values marked *: cAMP cell-based assay.
Sequence of human A2b adenosine receptor (P29275 whole entry): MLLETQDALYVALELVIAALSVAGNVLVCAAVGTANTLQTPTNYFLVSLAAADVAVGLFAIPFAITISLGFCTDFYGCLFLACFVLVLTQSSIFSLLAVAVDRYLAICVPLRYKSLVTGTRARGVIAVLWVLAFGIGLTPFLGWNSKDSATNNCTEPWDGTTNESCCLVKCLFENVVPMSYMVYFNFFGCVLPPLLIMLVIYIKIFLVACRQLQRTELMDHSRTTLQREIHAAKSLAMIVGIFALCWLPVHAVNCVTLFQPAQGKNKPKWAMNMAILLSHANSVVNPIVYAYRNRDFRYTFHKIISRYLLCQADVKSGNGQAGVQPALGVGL

Sequence of human A2a adenosine receptor (P29274 whole entry): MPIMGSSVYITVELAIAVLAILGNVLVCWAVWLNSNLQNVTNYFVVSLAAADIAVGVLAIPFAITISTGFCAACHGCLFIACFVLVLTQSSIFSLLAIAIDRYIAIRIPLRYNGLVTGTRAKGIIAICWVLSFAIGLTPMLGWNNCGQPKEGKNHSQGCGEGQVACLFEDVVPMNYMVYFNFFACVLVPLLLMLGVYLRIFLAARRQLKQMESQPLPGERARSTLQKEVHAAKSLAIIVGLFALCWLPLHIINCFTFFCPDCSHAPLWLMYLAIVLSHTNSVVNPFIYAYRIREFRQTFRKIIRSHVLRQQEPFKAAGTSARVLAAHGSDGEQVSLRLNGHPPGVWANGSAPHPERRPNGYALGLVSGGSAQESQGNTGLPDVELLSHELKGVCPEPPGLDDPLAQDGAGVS

One may read the IC50 as the midpoint of a concentration-inhibition curve. Turning to `COc1cccc2c1nc(N)n1nc([C@@H]3CCCN(c4cnn(C5COC5)c4)C3)nc21` [Example 39, (R)-7-methoxy-2-(1-(1-(oxetan-3-yl)-1H-pyrazol-4-yl)piperidin-3-yl)-[1,2,4]triazolo[1,5-c]quinazolin-5-amine], the IC50 in test [1] came to 2.5 nM; in test [2] it was 29.4 nM.

In the case of `CC[C@@H]1CC[C@H](c2nc3c4cccc(OC)c4nc(N)n3n2)CN1c1cnn(CC(C)(C)O)c1` (single isomer, unassigned) [Example 216D], the values for the IC50 in test [1] and in test [2] were 2.4 nM and 491 nM, respectively.

For `Cn1cc(N2CCC[C@@H](c3nc4c5cccc(OC(F)F)c5nc(N)n4n3)C2)cn1` [Example 126, (R)-7-(difluoromethoxy)-2-(1-(1-methyl-1H-pyrazol-4-yl)piperidin-3-yl)-[1,2,4]triazolo[1,5-c]quinazolin-5-amine], the IC50 turned out to be 13.2 nM in test [1] and 2510 nM in test [2].

Take `Nc1nc2c(Cl)cccc2c2nc(C3CCCN(c4cnn(C5CC5)c4)C3)nn12` (racemic) [Example 133, rac-7-chloro-2-(1-(1-cyclopropyl-1H-pyrazol-4-yl)piperidin-3-yl)-[1,2,4]triazolo[1,5-c]pyquinazolin-5-amine]: the values for the IC50 in test [1] and in test [2] were 1.2 nM and 116 nM, respectively.

For the molecule `COc1cccc2c1nc(N)n1nc([C@@H]3CCCN(c4cccc(C(F)(F)F)c4)C3)nc21` [Example 114, (R)-7-methoxy-2-(1-(3-(trifluoromethyl)phenyl)piperidin-3-yl)-[1,2,4]triazolo[1,5-c]quinazolin-5-amine], the IC50 in test [1] is 1.7 nM; in test [2], 370 nM.

Consider `COc1cccc2c1nc(N)n1nc(C3CCC(C)N(c4cnn(C5CC5)c4)C3)nc21` (single isomer, unassigned) [Example 141D], for which the IC50 stood at 3.1 nM in test [1] and 1650 nM in test [2].

In the case of `COc1cccc2c1nc(N)n1nc([C@@H]3CCCN(c4cncn4C)C3)nc21` [Example 86, (R)-7-methoxy-2-(1-(1-methyl-1H-imidazol-5-yl)piperidin-3-yl)-[1,2,4]triazolo[1,5-c]quinazolin-5-amine], the results for the IC50 in test [1] and in test [2] were 2.1 nM and 146 nM, respectively.

With `COc1cccc2c1nc(N)n1nc([C@@H]3CCCN(c4cnn(C)c4C(F)(F)F)C3)nc21` [Example 2, (R)-7-methoxy-2-(1-(1-methyl-5-(trifluoromethyl)-1H-pyrazol-4-yl)piperidin-3-yl)-[1,2,4]triazolo[1,5-c]quinazolin-5-amine], the IC50 in test [1] was 1 nM; in test [2] it was 763 nM.

Consider `COc1cccc2c1nc(N)n1nc([C@@H]3CCCN(c4cnn(C)c4C)C3)nc21` [Example 10, (R)-2-(1-(1,5-dimethyl-1H-pyrazol-4-yl)pipiperidin-3-yl)-7-methoxy-[1,2,4]triazolo[1,5-c]quinazolin-5-amine], for which the figures for the IC50 in test [1] and in test [2] were 1.5 nM and 252 nM, respectively.

Take `COc1cccc2c1nc(N)n1nc([C@@H]3CCCN(c4c(C)nn(C)c4C)C3)nc21` [Example 11, (R)-7-methoxy-2-(1-(1,3,5-trimethyl-1H-pyrazol-4-yl)piperidin-3-yl)-[1,2,4]triazolo[1,5-c]quinazolin-5-amine]: the IC50 in test [1] was found to be 0.8 nM; in test [2], 3700 nM.

For `COc1cccc2c1nc(N)n1nc(C3CCC(C)N(c4cnn(CC(C)(C)O)c4)C3)nc21` (single isomer, unassigned) [Example 143C], the IC50 came to 31.6 nM in test [1] and 651 nM in test [2].

As to `COc1cccc2c1nc(N)n1nc([C@@H]3CCCN(c4cnn(CC5CCC5)c4)C3)nc21` [Example 8, (R)-2-(1-(1-(cyclobutylmethyl)-1H-pyrazol-4-yl)piperidin-3-yl)-7-methoxy-[1,2,4]triazolo[1,5-c]quinazolin-5-amine], the figures for the IC50 in test [1] and in test [2] were 1.4 nM and 211 nM, respectively.

Turning to `COc1cccc2c1nc(N)n1nc(C3CCC(C)N(c4cnn(CC(F)(F)F)c4)C3)nc21` (single isomer, unassigned) [Example 142D], the values for the IC50 in test [1] and in test [2] were 0.9 nM and 9.3 nM, respectively.

Regarding `COc1cccc2c1nc(N)n1nc([C@@H]3CCCN(c4cnn(CC(C)(C)N)c4)C3)nc21` [Example 120, (R)-2-(1-(1-(2-amino-2-methylpropyl)-1H-pyrazol-4-yl)piperidin-3-yl)-7-methoxy-[1,2,4]triazolo[1,5-c]quinazolin-5-amine], the IC50 was determined as 3.1 nM in test [1] and 321 nM in test [2].

Turning to `COc1cccc2c1nc(N)n1nc([C@@H]3CCCN(c4cc(C(F)(F)F)nn4C)C3)nc21` [Example 77, (R)-7-methoxy-2-(1-(1-methyl-3-(trifluoromethyl)-1H-pyrazol-5-yl)piperidin-3-yl)-[1,2,4]triazolo[1,5-c]quinazolin-5-amine], the figures for the IC50 in test [1] and in test [2] were 0.8 nM and 540 nM, respectively.

With `COc1cccc2c1nc(N)n1nc([C@@H]3CCN(c4cnn(C5CC5)c4)C3)nc21` [Example 161, (R)-2-(1-(1-cyclopropyl-1H-pyrazol-4-yl)pyrrolidin-3-yl)-7-methoxy-[1,2,4]triazolo[1,5-c]quinazolin-5-amine], the results for the half-maximal inhibitory concentration (IC50) in test [1] and in test [2] were 13.2 nM and 231 nM, respectively.

Take `COc1ccc2c(c1)nc(N)n1nc([C@H]3C[C@H](C(F)(F)F)CN(c4cnn(CC(C)(C)O)c4)C3)nc21` (single isomer, unassigned) [Example 218A, 1-(4-((3S,5S or 3R,5R)-3-(5-amino-8-methoxy-[1,2,4]triazolo[1,5-c]quinazolin-2-yl)-5-(trifluoromethyl)piperidin-1-yl)-1H-pyrazol-1-yl)-2-methylpropan-2-ol]: in test [1], the IC50 was 50.7 nM. The “*A2B cAMP % inh. @ 10000 nM” value in test [2] (@ 10000 nM, marked *) stood at 9% inh. @ 10000 nM*.

In the case of `COc1ccc2c(c1)nc(N)n1nc([C@@H]3C[C@H](C)CN(c4cnn(C(C)(C)CO)c4)C3)nc21` (single isomer, unassigned) [Example 222A], the IC50 in test [1] is 1.32 nM; in test [2], 815 nM.

Turning to `CCn1cc(N2C[C@H](c3nc4c5cccc(OC)c5nc(N)n4n3)CC[C@@H]2C)cn1` [Example 140D], the IC50 in test [1] worked out at 5 nM; in test [2], 3010 nM.

As to `COc1ccc(F)c2c1nc(N)n1nc([C@@H]3CC[C@H](C)N(c4cnn(CC(C)(C)O)c4)C3)nc21` [Example 224, 1-(4-((2S,5R)-5-(5-amino-10-fluoro-7-methoxy-[1,2,4]triazolo[1,5-c]quinazolin-2-yl)-2-methylpiperidin-1-yl)-1H-pyrazol-1-yl)-2-methylpropan-2-ol], the IC50 turned out to be 0.3 nM in test [1] and 9.6 nM in test [2].

With `CCn1ccc(N2CCC[C@@H](c3nc4c5cccc(OC)c5nc(N)n4n3)C2)cc1=O` [Example 91, (R)-4-(3-(5-amino-7-methoxy-[1,2,4]triazolo[1,5-c]quinazolin-2-yl)piperidin-1-yl)-1-ethylpyridin-2(1H)-one], the IC50 in test [1] came out at 1.8 nM; in test [2], 775 nM.

As for `COc1cccc2c1nc(N)n1nc(C3CCC(C)N(c4cnn(CC(F)(F)F)c4)C3)nc21` (single isomer, unassigned) [Example 142A, 7-methoxy-2-((3S,6S or 3R,6R)-6-methyl-1-(1-(2,2,2-trifluoroethyl)-1H-pyrazol-4-yl)piperidin-3-yl)-[1,2,4]triazolo[1,5-c]quinazolin-5-amine], the IC50 in test [1] was found to be 53.8 nM; in test [2], 985 nM.

With `COc1cccc2c1nc(N)n1nc([C@@H]3CCCN(c4nnn(C)c4C)C3)nc21` [Example 79, (R)-2-(1-(1,5-dimethyl-1H-1,2,3-triazol-4-yl)piperidin-3-yl)-7-methoxy-[1,2,4]triazolo[1,5-c]quinazolin-5-amine], the IC50 in test [1] is 1.6 nM; in test [2], 146 nM.

With `COc1cccc2c1nc(N)n1nc([C@@H]3CCCN(c4cnn(C5CC5)c4)C3)nc21` [Example 7, (R)-2-(1-(1-cyclopropyl-1H-pyrazol-4-yl)piperidin-3-yl)-7-methoxy-[1,2,4]triazolo[1,5-c]quinazolin-5-amine], the IC50 stood at 1.4 nM in test [1] and 38.5 nM in test [2].

Turning to `Cn1cc(N2CCCC(c3nc4c5cccc(F)c5nc(N)n4n3)C2)cn1` (single isomer, unassigned) [Example 131B, (S or R)-7-fluoro-2-(1-(1-methyl-1H-pyrazol-4-yl)piperidin-3-yl)-[1,2,4]triazolo[1,5-c]quinazolin-5-amine], the IC50 in test [1] turned out to be 9.3 nM; in test [2], 121 nM.

Turning to `COc1ccc2c(c1)nc(N)n1nc([C@@H]3CCCN(c4cnn([C@H](C)[C@H](C)O)c4)C3)nc21` [Example 221B, (2S,3R)-3-(4-((R)-3-(5-amino-8-methoxy-[1,2,4]triazolo[1,5-c]quinazolin-2-yl)piperidin-1-yl)-1H-pyrazol-1-yl)butan-2-ol], the IC50 in test [1] is 1.5 nM; in test [2] it was 86 nM.

In the case of `COc1ccc2c(c1)nc(N)n1nc([C@@H]3CCCN(c4cnn(C5CC5)c4)C3)nc21` [Example 184, (R)-2-(1-(1-cyclopropyl-1H-pyrazol-4-yl)piperidin-3-yl)-8-methoxy-[1,2,4]triazolo[1,5-c]quinazolin-5-amine], the IC50 in test [1] was determined as 4 nM; in test [2], 141 nM.

As for `CC[C@H]1CC[C@@H](c2nc3c4cccc(OC)c4nc(N)n3n2)CN1c1cnn(CC(C)(C)O)c1` [Example 216C, 1-(4-((2S,5R)-5-(5-amino-7-methoxy-[1,2,4]triazolo[1,5-c]quinazolin-2-yl)-2-ethylpiperidin-1-yl)-1H-pyrazol-1-yl)-2-methylpropan-2-ol], the IC50 in test [1] came out at 23.5 nM; in test [2], 292 nM.

Regarding `COc1cccc2c1nc(N)n1nc([C@@H]3CCCN(c4cnn(C(C)(C)C(=O)O)c4)C3)nc21` [Example 28, (R)-2-(4-(3-(5-amino-7-methoxy-[1,2,4]triazolo[1,5-c]quinazolin-2-yl)piperidin-1-yl)-1H-pyrazol-1-yl)-2-methylpropanoic acid], the figures for the IC50 in test [1] and in test [2] were 6.3 nM and 48.3 nM, respectively.
